From PubChem BioAssay AID1963975 (Molecular Pharmacology Branch, DTP, NCI, 2024)

Tested on: 624824-186-R-J2-PDC multicell spheroids, viability
Experiment: Anticancer human tumor 624824-186-R-J2-PDC patient-derived colon adenocarcinoma cell line growth inhibition [PI3K]
Details: for IC50: curve of first compound; for viability, T/C: stronger effect = lower value
Method in brief: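 Spheroid viability read-out. Co-cultures contained the tumor line plus HUVEC and human MSCs. Each agent was paired with a PI3K inhibitor (inavolisib, alpelisib, duvelisib, copanlisib) across half-log dilutions starting at clinical Cmax, or at 10 microM when Cmax was unknown.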
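Also: spheroids exposed to agents for 7 days before viability read.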
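For viability, T/C in this document: 100% = DMSO vehicle treated spheroids.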

IC50 (second compound 0.0316 µM): > 10 µM
IC50 (second compound 0.1 µM): > 10 µM
IC50 (second compound 0.316 µM): > 10 µM
IC50 (second compound 1 µM): > 10 µM
IC50 (second compound 3.16 µM): > 10 µM
IC50 (second compound 10 µM): > 10 µM
Structure (SMILES): CC(Cn1ccc(-c2ccc(C#N)c(Cl)c2)n1)NC(=O)c1cc(C(C)O)[nH]n1 (configuration not stated) + CC(Nc1ncnc2nc[nH]c12)c1cc2cccc(Cl)c2c(=O)n1-c1ccccc1
viability, T/C (second compound 0.0316 µM, first compound 0.0316 µM): 98.2%
viability, T/C (second compound 0.0316 µM, first compound 0.1 µM): 90.6%
viability, T/C (second compound 0.0316 µM, first compound 0.316 µM): 96.1%
viability, T/C (second compound 0.0316 µM, first compound 1 µM): 106%
viability, T/C (second compound 0.0316 µM, first compound 3.16 µM): 99.2%
viability, T/C (second compound 0.0316 µM, first compound 10 µM): 113%
viability, T/C (second compound 0.1 µM, first compound 0.0316 µM): 92.1%
viability, T/C (second compound 0.1 µM, first compound 0.1 µM): 93.6%
viability, T/C (second compound 0.1 µM, first compound 0.316 µM): 114%
viability, T/C (second compound 0.1 µM, first compound 1 µM): 108%
viability, T/C (second compound 0.1 µM, first compound 3.16 µM): 98.5%
viability, T/C (second compound 0.1 µM, first compound 10 µM): 115%
viability, T/C (second compound 0.316 µM, first compound 0.0316 µM): 111%
viability, T/C (second compound 0.316 µM, first compound 0.1 µM): 102%
viability, T/C (second compound 0.316 µM, first compound 0.316 µM): 84.7%
viability, T/C (second compound 0.316 µM, first compound 1 µM): 97.5%
viability, T/C (second compound 0.316 µM, first compound 3.16 µM): 107%
viability, T/C (second compound 0.316 µM, first compound 10 µM): 100%
viability, T/C (second compound 1 µM, first compound 0.0316 µM): 105%
viability, T/C (second compound 1 µM, first compound 0.1 µM): 106%
viability, T/C (second compound 1 µM, first compound 0.316 µM): 95.2%
viability, T/C (second compound 1 µM, first compound 1 µM): 94.5%
viability, T/C (second compound 1 µM, first compound 3.16 µM): 80.5%
viability, T/C (second compound 1 µM, first compound 10 µM): 92.4%
viability, T/C (second compound 3.16 µM, first compound 0.0316 µM): 112%
viability, T/C (second compound 3.16 µM, first compound 0.1 µM): 102%
viability, T/C (second compound 3.16 µM, first compound 0.316 µM): 85.5%
viability, T/C (second compound 3.16 µM, first compound 1 µM): 102%
viability, T/C (second compound 3.16 µM, first compound 3.16 µM): 110%
viability, T/C (second compound 3.16 µM, first compound 10 µM): 115%
viability, T/C (second compound 10 µM, first compound 0.0316 µM): 103%
viability, T/C (second compound 10 µM, first compound 0.1 µM): 106%
viability, T/C (second compound 10 µM, first compound 0.316 µM): 110%
viability, T/C (second compound 10 µM, first compound 1 µM): 115%
viability, T/C (second compound 10 µM, first compound 3.16 µM): 106%
viability, T/C (second compound 10 µM, first compound 10 µM): 107%
